Reference: patent US20260256799A1, “INHIBITORS FOR TREATING SOLID TUMOURS” (UNIVERSITY OF SOUTHAMPTON, priority 2023, published 2026)

Tests used:
ATM [1] = test: TGF-β1-dependent ATM activation in fibroblasts (Western blotting); format: cell-based, human
Procedure: Human NSCLC cell line H441, HNSCC SCC25, murine cancer cell line TC-1 (lung), MC38 (colon) and human fetal foreskin fibroblasts HFFF2 were purchased from European Collection of Cell Cultures (Public Health England) or ATCC; HNSCC 5PT [32] were provided by l. Mackenzie (Queen Mary University of London, UK). HEK-293T cells and IMR90 lung fibroblasts were provided by Jesus Gil (Imperial College, London, UK). SCC25 were grown in Ham's F12:DMEM (1:1 ratio) medium with 10% FBS (Calbiochem) and 292 μg/ml L-Glutamine. 5PT were cultured in keratinocyte growth medium. HEK-293T, H441, MC38, HFFF2, IMR90 and primary fibroblasts were grown in DMEM supplemented with 10% FBS and 292 μg/ml L-Glutamine. Primary fibroblasts were isolated as previously used at early passage (p1-10). C57BL/6 murine normal lung and colon fibroblasts (MLF and MCF respectively) were grown at 3% oxygen. TC-1 were cultured in RPMI supplemented with 10% FBS and 292 μg/ml L-Glutamine. All cell cultures were routinely tested for mycoplasma contamination. All cells were cultured using standard cell culture plates/flasks (Corning). HFFF2 or IMR90 cells were transfected with 25 μM On-Target pool siRNA (Thermo Scientific/Dharmacon) using Oligofectamine reagent (Life Technologies) as described. Stable knockdown was performed using retro/lentiviral mediated transduction of shRNA plasmids, as previously described followed by cell selection using 1 μg/ml puromycin for 5-7 days. NOX4-inducible HEK-293 cells (kindly provided by Vincent Jaquet) were treated with 1 μg/ml doxycycline. […]
(§1) Cells were lysed in ice-cold RIPA buffer [1% NP40, 150 mM NaCl, 25 mM Tris-HCl pH 7.5, 0.1% SDS, 1% Na-Deoxycolate, 1 mM EGTA, 1 mM EDTA, 1 mM Na-orthovanadate, 10 mM Na-fluoride, 2.5 mM Na-pyrophosphate, 1 mM p glycerophosphate+freshly added 1 mM PMSF, 20 mM N-Ethylmaleimide (NEM), 10 ng/ml Microcystin-LR, 0.12 μM Okadaic acid and phosphatase and protease inhibitor cocktails; all from Sigma]. Protein extracts were then centrifuged and supernatants quantified using Dc-Bio-Rad protein assay kit (Bio-Rad laboratories) as previously. […]

HFFF2 [2] = test: ROS assay (DCFH-DA fluorescence); format: cell-based, human; settings: GKT137831 40 μM, HFFF2 treated 48 hours with TGF-β1
Procedure: (§2) HFFF2s were plated in 24-well plates (1×10^3 or 5×10^3 cells/well) and treated with TGF-β1 the following day (and then every 3 days). Senescence was quantified at day 5 and 12 from TGF-β1 treatment determining the percentage of SA-β-Gal-positive cells (Sigma) of the total number of cells counterstained with Dapi (Sigma) as previously described. At least 200 cells/well in at least three independent experiments were counted per sample using a CKX41 Olympus fluorescent microscope. Cells were less than 50% confluent at the end of the experiment to avoid SA-β-Gal-false positive cells due to cell contact. ROS assay was performed as previously.

ATM [3] = test: ATM activation and dimerization in CAF nuclear extracts (Western blotting); format: cell-based, human; settings: GKT137831 daily for 72 hours
Procedure: (§3) Human NSCLC cell line H441, HNSCC SCC25, murine cancer cell line TC-1 (lung), MC38 (colon) and human fetal foreskin fibroblasts HFFF2 were purchased from European Collection of Cell Cultures (Public Health England) or ATCC; HNSCC 5PT [32] were provided by l. Mackenzie (Queen Mary University of London, UK). HEK-293T cells and IMR90 lung fibroblasts were provided by Jesus Gil (Imperial College, London, UK). SCC25 were grown in Ham's F12:DMEM (1:1 ratio) medium with 10% FBS (Calbiochem) and 292 μg/ml L-Glutamine. 5PT were cultured in keratinocyte growth medium. HEK-293T, H441, MC38, HFFF2, IMR90 and primary fibroblasts were grown in DMEM supplemented with 10% FBS and 292 μg/ml L-Glutamine. Primary fibroblasts were isolated as previously used at early passage (p1-10). […]
as §1

NOX4 = target: T1, NOX4 (Homo sapiens, UniProt Q9NPH5); settings: cited from earlier work
T1 sequence (Q9NPH5 1-578): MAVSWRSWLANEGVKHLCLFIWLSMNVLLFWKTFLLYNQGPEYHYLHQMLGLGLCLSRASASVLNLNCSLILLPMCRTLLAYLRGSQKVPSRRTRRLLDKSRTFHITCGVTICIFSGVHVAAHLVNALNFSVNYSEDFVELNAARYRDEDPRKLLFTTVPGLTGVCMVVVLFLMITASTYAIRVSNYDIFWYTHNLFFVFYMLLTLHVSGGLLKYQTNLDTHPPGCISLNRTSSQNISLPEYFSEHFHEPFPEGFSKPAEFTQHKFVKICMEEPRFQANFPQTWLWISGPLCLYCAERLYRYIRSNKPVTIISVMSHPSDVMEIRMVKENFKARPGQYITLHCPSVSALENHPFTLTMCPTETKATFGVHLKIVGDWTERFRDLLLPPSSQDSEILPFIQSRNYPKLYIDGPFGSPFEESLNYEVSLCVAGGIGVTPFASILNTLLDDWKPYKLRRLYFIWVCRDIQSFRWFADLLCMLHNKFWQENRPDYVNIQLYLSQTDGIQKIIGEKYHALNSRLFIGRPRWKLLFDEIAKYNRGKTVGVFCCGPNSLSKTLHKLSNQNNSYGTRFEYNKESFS
T1 sequence (P13498 1-195 partner): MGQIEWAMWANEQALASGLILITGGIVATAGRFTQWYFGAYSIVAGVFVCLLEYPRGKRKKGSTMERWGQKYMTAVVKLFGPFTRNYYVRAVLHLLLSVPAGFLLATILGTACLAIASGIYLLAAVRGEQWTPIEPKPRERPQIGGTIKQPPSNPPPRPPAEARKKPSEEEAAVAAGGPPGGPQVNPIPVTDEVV

HFFF2 fibroblasts = test: TGF-β1-induced myofibroblast differentiation of fibroblasts (Western blotting, immunofluorescence, Q-RT-PCR, collagen gel contraction); format: cell-based, human
Procedure: (§4) Human NSCLC cell line H441, HNSCC SCC25, murine cancer cell line TC-1 (lung), MC38 (colon) and human fetal foreskin fibroblasts HFFF2 were purchased from European Collection of Cell Cultures (Public Health England) or ATCC; HNSCC 5PT [32] were provided by l. Mackenzie (Queen Mary University of London, UK). HEK-293T cells and IMR90 lung fibroblasts were provided by Jesus Gil (Imperial College, London, UK). SCC25 were grown in Ham's F12:DMEM (1:1 ratio) medium with 10% FBS (Calbiochem) and 292 μg/ml L-Glutamine. 5PT were cultured in keratinocyte growth medium. HEK-293T, H441, MC38, HFFF2, IMR90 and primary fibroblasts were grown in DMEM supplemented with 10% FBS and 292 μg/ml L-Glutamine. Primary fibroblasts were isolated as previously used at early passage (p1-10). C57BL/6 murine normal lung and colon fibroblasts (MLF and MCF respectively) were grown at 3% oxygen. TC-1 were cultured in RPMI supplemented with 10% FBS and 292 μg/ml L-Glutamine. All cell cultures were routinely tested for mycoplasma contamination. All cells were cultured using standard cell culture plates/flasks (Corning). HFFF2 or IMR90 cells were transfected with 25 μM On-Target pool siRNA (Thermo Scientific/Dharmacon) using Oligofectamine reagent (Life Technologies) as described. Stable knockdown was performed using retro/lentiviral mediated transduction of shRNA plasmids, as previously described followed by cell selection using 1 μg/ml puromycin for 5-7 days. NOX4-inducible HEK-293 cells (kindly provided by Vincent Jaquet) were treated with 1 μg/ml doxycycline. Wild type and mutant (C2991L) ATM over-expression was carried out transfecting HFFF2 with Viafect (Promega) according to manufacturer's instructions and selected for 10 days with 4 mg/ml G418. p-Retrosuper-shATM (ATM #1:912) and pCDNA3.1-Flag-mut-ATM (C2991L; pTP1625 clone) were kindly provided by Yosef Shiloh and Tanya Paull respectively. pLKO.1 murine shATM (TRCN0000012643) and pCDNA3.1-Flag-wt-ATM (31985) were purchased from Sigma and Addgene respectively. 2 ng/ml TGF-3 (TGF-β1; R&D Systems; for 3 days) was used to induce myofibroblast differentiation. 10 ng/ml IL-1pR (R&D Systems) for 72 hours was used to induce iCAF differentiation. […] All the inhibitors were resuspended in DMSO. To trigger DDR activation and/or cell stress HFFF2 were either irradiated with 2-100Gy using 350Kv X-Ray Irradiation System (Faxitron), or treated with 100 ng/ml Neocarzinostatin for 2 hours (NCS; Sigma), with 2-10 mM H2O2(Fisher Scientific) or with 5 μg/ml Cisplatin (Sandoz) for 30 minutes.
5×10^3 HFFF2 were plated on permanox chamber slides (Thermo Scientific) and treated as described in the figure legends. Immunostaining was performed as previously. DAPI was used as nuclear counterstain and coverslips were mounted using fluorescent mounting solution (Dako). Images were taken using an Olympus IX81 fluorescence microscope and Xcellence program. DNA Damage foci were quantified from at least 8 non-overlapping FoV with ~300 cells in total per condition. Kruskall-Wallis statistical test was used to indicate the presence of a different distribution per time points in each group of foci. For collagen 1A1 deposition, 5×10^3 HFFF2 or MLF were seeded into chamber slides and treated with TGF-β1±inhibitors for a week (treated day 1 & day 4). Decellularisation was performed using 0.25M NH4OH in 50 mM Tris at 37° C. for 30 minutes and slides fixed with ice-cold 100% methanol at −20° C. followed by a blocking step. The remainderwas performed as previously described. SMA and Collagen 1A1 quantification was performed using Fiji. High resolution imaging of mouse tumours was carried out using an Axioscan.Z1 scanner (Zeiss).

HFFF2 [4] = test: IL-1-induced iCAF gene expression (Q-RT-PCR); format: cell-based, human; settings: KU55933 + 10 ng/ml IL-1p 72 hours
Procedure: as §3, with “(p1-10). C57BL/6 murine normal lung and colon fibroblasts (MLF and MCF respectively) were grown at 3% oxygen. TC-1 were cultured in RPMI supplemented with 10% FBS and 292 μg/ml L-Glutamine. All cell cultures were routinely tested for mycoplasma contamination. All cells were cultured using standard cell culture plates/flasks (Corning).” for “(p1-10).”
For Quantitative Real-time PCR (Q-RT-PCR), RNA was extracted and retro-transcribed as described previously and Q-RT-PCR was performed as previously. The mRNA expression levels were analyzed using the AACt relative quantitation method. […]

HNSCC and NSCLC CAF = test: Established myoCAF phenotype of CAF cultured ex vivo; format: cell-based, human
Procedure: as §4
Cells were lysed in ice-cold RIPA buffer [1% NP40, 150 mM NaCl, 25 mM Tris-HCl pH 7.5, 0.1% SDS, 1% Na-Deoxycolate, 1 mM EGTA, 1 mM EDTA, 1 mM Na-orthovanadate, 10 mM Na-fluoride, 2.5 mM Na-pyrophosphate, 1 mM p glycerophosphate+freshly added 1 mM PMSF, 20 mM N-Ethylmaleimide (NEM), 10 ng/ml Microcystin-LR, 0.12 μM Okadaic acid and phosphatase and protease inhibitor cocktails; all from Sigma]. Protein extracts were then centrifuged and supernatants quantified using Dc-Bio-Rad protein assay kit (Bio-Rad laboratories) as previously. For nuclear-cytoplasmic protein extraction, the inventors used NE-PER Reagents according to manufacturer's instructions (Thermofisher). Equal amounts of protein were electrophoresed either in reducing (+Dithiothreitol, DTT) or in non-reducing conditions in 3-8% or 4-12% SDS-PAGE gels and electro blotted as previously.

H441, 5PT, SCC25 cells = test: Transwell invasion assay towards fibroblast-conditioned media; format: cell-based, human
Procedure: CAF, HFFF2 or shCTR/shATM HFFF2 populations were treated with 13.3 μM KU55933+/−TGF-β1 for 7 days (treated day 1, day 4). Cells were washed twice with PBS and serum-free DMEM added for 72 hours. Fibroblast-conditioned medium (CM) was collected, centrifuged, filtered (0.2 μm), normalized according to cell number and used as a chemoattractant in the lower chamber of Transwell invasion assays as previously. Two-way Anova was used for statistical analysis.

HFFF2 [5] = test: Senescence assay (SA-β-Gal); format: cell-based, human; settings: continuous TGF-β1 administration, at 12 days
Procedure: as §2

[6] = GKT137831 40 μM, HFFF2, TGF-β1 24 hours

## CN(C)c1cccc(-c2c3c(=O)n(-c4ccccc4Cl)[nH]c3cc(=O)n2C)c1 [GKT137831]
ATM [1]; [6]
  ATM downstream kinase activity: inhibited
  ATM phosphorylation: inhibited
ATM [1]; GKT137831, HFFF2, TGF-β1 48 hours
  DNA damage monitored by pH2AX protein expression: decreased
HFFF2 [2]
  ROS production: suppressed
ATM [3]; non-reducing conditions
  ATM dimerization: inhibited
ATM [3]; two HNSCC CAF and one NSCLC CAF
  ATM activation: inhibited
NOX4
  myoCAF differentiation: suppresses
  myoCAF-mediated immunotherapy resistance: overcomes

## O=c1cc(-c2cccc3c2Sc2ccccc2S3)oc(N2CCOCC2)c1 [KU55933]
HFFF2 fibroblasts; KU55933 13.3 μM + TGF-β1 72 hours, HFFF2 and primary colon, skin, oral fibroblasts
  expression of SMA: inhibiting
HFFF2 fibroblasts; KU55933 13.3 μM + TGF-β1, 3 days, HFFF2
  SMA-positive stress fiber formation: inhibiting
HFFF2 fibroblasts; KU55933 13.3 μM + TGF-β1, 7 days, HFFF2, MLF one week
  collagen1 deposition: inhibiting
HFFF2 fibroblasts; KU55933 13.3 μM + TGF-β1, HFFF2 or normal primary oral fibroblasts
  contraction of collagen gels: inhibiting
HFFF2 fibroblasts; KU55933 13.3 μM co-treated with TGF-β1
  myofibroblast differentiation: suppressed differentiation
HFFF2 fibroblasts; KU55933 + TGF-β1 72 hours, HFFF2, Q-RT-PCR
  TGF-β1 induction of myoCAF genes (COL11A1, ASPN, ELN): suppressed
HFFF2 [4]
  IL-1p induction of most iCAF genes (CCL2, LIF, IL6, CXCL1): significantly upregulated
HNSCC and NSCLC CAF; KU55933 for 7 days
  CAF phenotype: reverted CAF to a more quiescent phenotype
  expression of myofibroblast markers (SMA, collagen I, fibronectin): downregulating
HNSCC and NSCLC CAF; collagen gel contraction, ATM inhibition by KU55933 or shRNA-knockdown
  contractility: suppressing
H441, 5PT, SCC25 cells; 5PT or SCC25 cells towards conditioned media of HFFF2 treated with TGF-β1 +/− KU55933 7 days
  invasion-promoting effects of myofibroblasts generated through TGF-β1 treatment: suppressed
H441, 5PT, SCC25 cells; H441 or 5PT cells towards conditioned media of NSCLC / HNSCC CAF treated with KU55933 13.3 μM 7 days
  myoCAF-dependent cancer cell invasion: inhibiting

## TGF-β1: cytokine (R&D Systems) used to induce myofibroblast differentiation
HFFF2 [5]
  % range SA-β-Gal-positive cells: 15.8-23.3%
